Experimental data from patent publication US4206215A, “Antimicrobial bis-[4-(substituted-amino)-1-pyridinium]alkanes” (Sterling Drug Inc., priority 1977, dated 1980).
Read-outs that look alike come from different tables or passages of the source.

Tests used:
Ps. aerug. MGH-2 = assay: In vitro antibacterial activity, MIC (modified Autotiter method); format: cell-based, Pseudomonas aeruginosa; settings: 18-20 hours at 37° C.; for MIC: Pseudomonas aeruginosa, 20 h, read-out: MIC Ps. aerug. MGH-2
In short: (§1)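 An automated twofold dilution method was used. Compound solution (1,000 mcg./ml., stock) is stepped down in sterile water, and inoculated double-strength semisynthetic glucose broth is dispensed to each cup, so final drug concentrations range 500 to 0.06 mcg./ml.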

E. coli AB1932-1 = assay: as above; format: cell-based, Escherichia coli; settings: 18-20 hours at 37° C.; for MIC: Escherichia coli, AB19321, 20 h, read-out: MIC E. coli AB1932-1
In short: as §1

E. coli Vogel = assay: as above; format: cell-based, Escherichia coli; settings: 18-20 hours at 37° C.; for MIC: Escherichia coli, 20 h, read-out: MIC E. coli Vogel
In short: as §1

E. coli 100/B22 = assay: as above; format: cell-based, Escherichia coli; settings: for MIC: Escherichia coli, 100/B22, 20 h, read-out: MIC E. coli 100/B22, 18-20 hours at 37° C.; for MIC E. coli 100/B22: 18-20 hours at 37° C.
In short: as §1

T. menta. 9129 = assay: In vitro antifungal activity, MIC (modified Autotiter method); format: cell-based, Trichophyton mentagrophytes; settings: 18-20 hours at 37° C.; for MIC: Trichophyton mentagrophytes, 20 h, read-out: MIC T. menta. 9129
In short: as §1

[1] = Acute oral toxicity (ALD50); format: in vivo; settings: mouse, in vivo, po, mice, read-out: 7-Day ALD50
Description: (§2) The acute oral toxicity (ALD50) of several representative examples was determined as follows: Groups of 3 young adult male Swiss-Webster strain albino mice were fasted approximately 4 hours before medication and then medicated once orally by stomach tube.

[2] = system: young adult male Swiss-Webster strain albino mice; assay: Acute oral toxicity (ALD50); format: in vivo
Description: as §2

K. pneum. 39645 = assay: In vitro antibacterial activity, MIC (modified Autotiter method); format: cell-based, Klebsiella pneumoniae; settings: 18-20 hours at 37° C.; for MIC: Klebsiella pneumoniae, 20 h, read-out: MIC K. pneum. 39645
In short: as §1

P. mirab. MGH-1 = assay: as above; format: cell-based, Proteus mirabilis; settings: 18-20 hours at 37° C.; for MIC: Proteus mirabilis, 20 h, read-out: MIC P. mirab. MGH-1
In short: as §1

[3] = system: Streptococcus mutans OMZ-61; assay: Dental plaque-preventive effectiveness in the presence of sterile human saliva (50%); format: cell-based; settings: 50% sterile human saliva
Description: The dental plaque preventive activity of certain of the compounds of the present invention was determined by measuring the ability of these compounds to inhibit the production of dental plaque by Streptococcus mutans OMZ-61 as follows:
A culture medium for the plaque-producing Streptococcus mutans OMZ-61 containing 1.5 g. of BBL beef extract, 5 g. of sodium chloride, 10 g. of dehydrated trypticase, 5 g. of sucrose and sufficient distilled water to give a total volume of 1000 ml. is adjusted to pH 7.0 and sterilized by membrane filtration. The medium is dispensed aseptically in 10-ml. aliquots into 150×16 mm. test tubes and stored at refrigeration temperature until used.
Two concentrations of the compound to be tested are prepared by dissolving 100 mg. of the compound in 1 ml. of distilled water with the aid of sufficient 0.1 N sodium hydroxide, 10% dimethylsulfoxide or 10% N,N-dimethylformamide and diluting the resulting solution to 10 ml. with distilled water. This 1.0% solution and a 1:10 dilution in distilled water (0.1%) are sterilized by membrane filtration before use.
A sterile piece of plaque-free natural tooth enamel or synthetic hydroxylapatite is suspended in each concentration of compound for two 1-minute periods, each followed by a 1-minute air drying period. Each piece is then suspended and agitated for 5 minutes in individual test tubes containing sterile distilled water (rinse). They are then suspended in 10 ml. of liquid beef extract medium to which has been added 0.3 ml. of a 24-hr. anaerobic culture of Streptococcus mutans. The tubes containing the "treated" hydroxylapatite and the Streptococcus mutans are then incubated anaerobically at 37° C. for 24 hours. The same process of two 1-minute soaks in the solution of compound, each followed by 1 minute of air drying and the final 5-minute rinse is repeated before once again suspending the hydroxylapatite in a fresh tube containing 10 ml. of beef extract medium and 0.3 ml. of inoculum. At the end of the second 24-hour period, each piece of hydroxylapatite is rinsed for 1 minute in 3 successive tubes of distilled water. These are then suspended for 1 minute in a solution of F, D & C Red No. 3 dye. This staining procedure is used in order to identify more easily the development of plaque after the 48-hour period of exposure to the plaque-producing organism. The staining period is followed by another 10-second rinse to remove excess dye. Any plaque formation stains a brilliant pink. […] Active compounds are tested at successively lower doses in order to determine the minimum effective concentration. On some occasions, the interference of plaque production is caused by the inhibition of growth of the organism in the culture medium because the compound has been leached from the hydroxylapatite to produce an antibacterial level in the medium. When this occurs, the compound is tested at lower concentrations until the growth of the organism in the surrounding medium is equal to that in the nonmedicated control culture. Plaque may or may not be formed at these lower concentrations.
Dental plaque-preventive effectiveness in the presence of sterile human saliva (50%) was determined for representative examples.

S. Aureus Smith = assay: In vitro antibacterial activity, MIC (modified Autotiter method); format: cell-based, Staphylococcus aureus; settings: 18-20 hours at 37° C.; for MIC: Staphylococcus aureus, 20 h, read-out: MIC S. Aureus Smith
In short: as §1

S. pyogen. C203 = assay: as above; format: cell-based, Streptococcus pyogenes; settings: 18-20 hours at 37° C.; for MIC: Streptococcus pyogenes, 20 h, read-out: MIC S. pyogen. C203
In short: as §1

C. albicans 10231 = assay: In vitro antifungal activity, MIC (modified Autotiter method); format: cell-based, Candida albicans; settings: 18-20 hours at 37° C.; for MIC: Candida albicans, 10231, 20 h, read-out: MIC C. albicans 10231
In short: as §1

C. albicans Wisc. = assay: as above; format: cell-based, Candida albicans; settings: 18-20 hours at 37° C.; for MIC: Candida albicans, 20 h, read-out: MIC C. albicans Wisc.
In short: as §1

A. niger 16404 = assay: as above; format: cell-based, Aspergillus niger; settings: 18-20 hours at 37° C.; for MIC: Aspergillus niger, 16404, 20 h, read-out: MIC A. niger 16404
In short: as §1

[4] = system: Herpes simplex type 2 virus; assay: Virucidal activity in vitro (plaque inhibition test); format: cell-based; settings: 2 mg. of test compound on growth medium
Description: Virucidal activity of representative examples against Herpes simplex type 2 virus was determined in vitro employing a procedure similar to the plaque inhibition test for detection of specific inhibitors of DNA-containing viruses published by E. C. Herrmann, Jr., Proc. Soc. Exp. Biol. Med. 107, 142 (1961) wherein 2 mg. of the test compound was placed on the surface of the growth medium.

[5] = 125 mg/kg oral, aqueous solution
[6] = 250 mg/kg oral, aqueous solution
[7] = 500 mg/kg oral, aqueous solution
[8] = 1000 mg/kg oral, aqueous solution
[9] = 125 mg/kg oral, suspension in 1% G.T.
[10] = 500 mg/kg oral, suspension in 1% G.T.
[11] = 1000 mg/kg oral, suspension in 1% G.T.
[12] = 1250 mg/kg (so in the source) oral, suspension in 1% G.T.
[13] = suspension in 1% gum tragacanth
[14] = 250 mg/kg oral, suspension in 1% G.T.

Compound | MIC (Ps. aerug. MGH-2) [µg/mL] | MIC (E. coli AB1932-1) [µg/mL] | MIC (E. coli Vogel) [µg/mL] | MIC (E. coli 100/B22) [µg/mL] | MIC (T. menta. 9129) [µg/mL] | MIC (K. pneum. 39645) [µg/mL] | MIC (P. mirab. MGH-1) [µg/mL] | MIC (S. Aureus Smith) [µg/mL] | MIC (S. pyogen. C203) [µg/mL] | MIC (C. albicans 10231) [µg/mL] | MIC (C. albicans Wisc.) [µg/mL] | MIC A. niger 16404 (A. niger 16404) [µg/mL] | Mortality 7 Days [2, 9] | Mortality 24 Hrs [2, 9] | Mortality 7 Days [2, 10] | Mortality 24 Hrs [2, 10] | Mortality 7 Days [2, 11] | Mortality 24 Hrs [2, 11] | Dental Plaque Preventive Activity in 50% saliva Minimum Effective Conc. (%) [3] | LD50 at 168 h [1, 13] [mg/kg] | further results
CCCCCCCCNc1cc[n+](CCCCCCCCCC[n+]2ccc(NCCCCCCCC)cc2)cc1 [10A,B, 1,10-bis-[4-(octylamino)-1-pyridinium]decane dichloride] | 3.9 | 1 | 1.95 | 1 | 1.95 | 1.95 | 3.9 | 0.5 | 1 | 1.95 | 1.95 | 7.8 |  |  |  |  |  |  |  |  | LD50 at 168 h ([1]; aqueous solution): > 1000 mg/kg; Mortality 7 Days [2, 5]: 0/3; Mortality 24 Hrs [2, 5]: 0/3; Mortality 7 Days [2, 6]: 0/3; Mortality 24 Hrs [2, 6]: 0/3; Mortality 7 Days [2, 7]: 0/3; Mortality 24 Hrs [2, 7]: 0/3; Mortality 7 Days [2, 8]: 0/3; Mortality 24 Hrs [2, 8]: 0/3; Dental Plaque Preventive Activity in 50% saliva Minimum Effective Conc. (%) ([3]; listed as 10 A, B): 0.005%
CCCCCCCNc1cc[n+](CCCCCCCCCCCC[n+]2ccc(NCCCCCCC)cc2)cc1 [Example 4, 1,12-bis-[4-(heptylamino)-1-pyridinium]dodecane dichloride] |  |  |  |  |  |  |  |  |  |  |  | 7.8 | 0/3 | 0/3 | 0/3 | 0/3 | 0/3 | 0/3 | Ca. 0.005% |  | MIC Ps. aerug. MGH-2 (Ps. aerug. MGH-2): 3.9 µg/mL; MIC E. coli AB1932-1 (E. coli AB1932-1): 1.0 µg/mL; MIC E. coli Vogel (E. coli Vogel): 0.5 µg/mL; MIC E. coli 100/B22 (E. coli 100/B22): 0.5 µg/mL; MIC T. menta. 9129 (T. menta. 9129): 0.5 µg/mL; Mortality 7 Days [2, 12]: 0/3; Mortality 24 Hrs [2, 12]: 0/3; 7-Day ALD50 ([2]; oral, suspension in 1% gum tragacanth, 10080 min): > 1000 mg/kg; MIC K. pneum. 39645 (K. pneum. 39645): 1.95 µg/mL; MIC P. mirab. MGH-1 (P. mirab. MGH-1): 1.95 µg/mL; MIC S. Aureus Smith (S. Aureus Smith): 0.25 µg/mL; MIC S. pyogen. C203 (S. pyogen. C203): 1.0 µg/mL; MIC C. albicans 10231 (C. albicans 10231): 1.95 µg/mL; MIC C. albicans Wisc. (C. albicans Wisc.): 1.95 µg/mL
CCCCCCCCNc1cc[n+](CCCCCC[n+]2ccc(NCCCCCCCC)cc2)cc1 [Example 14] |  |  |  |  |  |  |  |  |  |  |  | 15.6 | 0/3 | 0/3 | 0/3 | 0/3 | 1/3 | 0/3 | 0.1% | > 1000 | MIC Ps. aerug. MGH-2 (Ps. aerug. MGH-2): 31.3 µg/mL; MIC E. coli AB1932-1 (E. coli AB1932-1): 0.5 µg/mL; MIC E. coli Vogel (E. coli Vogel): 1.0 µg/mL; MIC E. coli 100/B22 (E. coli 100/B22): 0.5 µg/mL; MIC T. menta. 9129 (T. menta. 9129): 1.0 µg/mL; Mortality 7 Days [2, 14]: 0/3; Mortality 24 Hrs [2, 14]: 0/3; MIC K. pneum. 39645 (K. pneum. 39645): 1.95 µg/mL; MIC P. mirab. MGH-1 (P. mirab. MGH-1): 15.6 µg/mL; MIC S. Aureus Smith (S. Aureus Smith): 0.25 µg/mL; MIC S. pyogen. C203 (S. pyogen. C203): 0.5 µg/mL; MIC C. albicans 10231 (C. albicans 10231): 1.95 µg/mL; MIC C. albicans Wisc. (C. albicans Wisc.): 1.95 µg/mL
CCCCCCCCNc1cc[n+](CCCCCCCCC[n+]2ccc(NCCCCCCCC)cc2)cc1 [Example 44A, 1,9-bis-[4-(octylamino)-1-pyridinium]nonane dibromide] | 3.9 | 1 | 1 | 1 | 1 | 1.95 | 15.6 | 1 | 0.5 | 1 | 1.95 |  | 0/3 | 0/3 | 0/3 | 0/3 | 0/3 | 0/3 | 0.005% | > 1000 | Mortality 7 Days [2, 14]: 0/3; Mortality 24 Hrs [2, 14]: 0/3; MIC (A. niger 16404): 3.9 µg/mL
CCCCC(CC)CNc1cc[n+](CCCCCCCC[n+]2ccc(NCC(CC)CCCC)cc2)cc1 (stereo not drawn) [Example 56, 1,8-bis-[4-(2-ethylhexylamino)-1-pyridinium]octane dibromide] | 125 | 0.98 | 3.9 | 1.95 | 1.95 | 7.8 | 125 | 0.31 | 0.16 | 3.9 | 3.9 |  | 0/3 | 0/3 | 0/3 | 0/3 | 1/3 | 1/3 | 0.1% | > 1000 | Virucidal activity against Herpes simplex type 2 virus [4]: active; Mortality 7 Days [2, 14]: 0/3; Mortality 24 Hrs [2, 14]: 0/3; MIC (A. niger 16404): 15.6 µg/mL
